Measured values as given in patent publication US20100210649A1, “PYRIDAZINONES AND FURAN-CONTAINING COMPOUNDS” (Sloan-Kettering Institute for Cancer Research, priority 2006, published 2010).
Read-outs that look alike come from different tables or passages of the source.

Key:
Format in all cases: cell-based, human
Settings in all cases: for inhibition at 10 µM: Homo sapiens
[1] = system: H1975; assay: Non Small Cell Lung Cancer proliferation assay (Alamar Blue reduction), H1975
Method: (§1) These cells have a doubling time of 1-2 days. All cell types are adherent and grow in colonies. The cells should be kept at a density between 50,000 cells/mL -500,000 cells/mL to provide for optimum growth and adequate nutrition. The cell line should be maintained at 37° C. in a humidified atmosphere with 5% CO2 in a sterile cell culture incubator.
(§2) Non Small Cell Lung Cancer Proliferation Assay.
(§3) High Controls for this assay are made by treating Non Small Cell Lung Cancer cells with 5 ul of 10% DMSO. [Final concentration in this assay is 1% DMSO].
(§4) Important Note: All compounds for testing in this assay should be done at the final concentration of 1% DMSO.
(§5) After addition, the cells are placed in cell culture incubator at 37° C. for 48 hours for complete treatment.
(§6) After drug treatment, cytotoxicity is measured by Alamar Blue reduction.
(§7) The cells are incubated for 48 hours at 37° C. to complete the Alamar Blue reduction.
(§8) The final step in the assay is to measure the amount of Alamar Blue reduction. […] The Alamar Blue fluorescence is measured at an excitation of 530 nm and emission of 590 nm.
(§9) For the NSCLC project, the cell based assay was screened against a small molecule library of approximately 200,000 compounds. The compound library is stored in our automated robotic freezer (Biophile) at −20° C. in 100% DMSO. Compound freeze and thaw cycles are kept to a minimum. […] This assay was performed on a fully automated linear track robotic platform (CRS F3 Robot System, Thermo Electron Corp., Ontario, Canada) utilizing several integrated peripherals for plate handling, liquid dispensing, and readout detection. […] The microplates are then placed at 37° C. for 48 hours to complete treatment of cells with compounds. Next, 5 ul of alamar blue was added using a liquid dispenser (Flexprop Precision Dispenser, Perkin Elmer, Mass., USA) and incubated for 48 hours at 37° C. The alamar blue prompt fluorescence was measured on Victor V (Victor^3 V, Perkin Elmer, Mass., USA) and output data files were loaded into ORIS (Oncology Research Informatics System, MSKCC, NY, USA), a screening data acquisition and analysis platform.
(§10) The dose response studies were done with the following standard procedure. First, the cells were counted and dispensed at 250 cells/well into 384-well microplates with compound. The cells were incubated for 48 hours at 37 C to complete treatment, and then alamar blue was added for an additional 48 hours. Finally, alamar blue reduction was measured and the data was loaded into ORIS, our data screening acquisition platform.

[2] = system: H3255; assay: Non Small Cell Lung Cancer proliferation assay (Alamar Blue reduction), H3255
Method: as §1, §2, §3, §4, §5, §6, §7, §8, §9, §10

[3] = system: H2030; assay: Non Small Cell Lung Cancer proliferation assay (Alamar Blue reduction), H2030
Method: as §1, §2, §3, §4, §5, §6, §7, §8, §9, §10

[4] = system: H1650; assay: Non Small Cell Lung Cancer proliferation assay (Alamar Blue reduction), H1650
Method: as §1, §2, §3, §4, §5, §6, §7, §8, §9, §10

[5] = NCI-H1975, primary screening, 10 μM compound in 1% DMSO (v/v), read-out: percentage inhibition H1975
[6] = NCI-H3255, primary screening, 10 μM compound in 1% DMSO (v/v), read-out: percentage inhibition H3255
[7] = NCI-H2030, primary screening, 10 μM compound in 1% DMSO (v/v), read-out: percentage inhibition H2030
[8] = NCI-H1650, primary screening, 10 μM compound in 1% DMSO (v/v), read-out: percentage inhibition H1650
[9] = NCI-H1975, primary screening, H1975, 10 μM compound in 1% DMSO (v/v), read-out: PRIMARY HTS [%] H1975 (percentage inhibition)
[10] = NCI-H3255, primary screening, H3255, 10 μM compound in 1% DMSO (v/v), read-out: PRIMARY HTS [%] H3255 (percentage inhibition)
[11] = NCI-H2030, primary screening, H2030, 10 μM compound in 1% DMSO (v/v), read-out: PRIMARY HTS [%] H2030 (percentage inhibition)
[12] = NCI-H1650, primary screening, H1650, 10 μM compound in 1% DMSO (v/v), read-out: PRIMARY HTS [%] H1650 (percentage inhibition)

| SMILES | inhibition at 10 µM [1, 5] [%] | inhibition at 10 µM [2, 6] [%] | inhibition at 10 µM [3, 7] [%] | inhibition at 10 µM [4, 8] [%] | other results |
| --- | --- | --- | --- | --- | --- |
| O=C(Nc1ccc(I)cc1)c1ccc([N+](=O)[O-])o1 [compound 103710] |  |  |  |  | inhibition at 10 µM ([1]; NCI-H1975, read-out: PRIMARY HTS [%] H1975 (percentage inhibition)): 17%; inhibition at 10 µM ([2]; NCI-H3255, read-out: PRIMARY HTS [%] H3255 (percentage inhibition)): 4%; inhibition at 10 µM ([3]; NCI-H2030, read-out: PRIMARY HTS [%] H2030 (percentage inhibition)): -5%; inhibition at 10 µM ([4]; NCI-H1650, read-out: PRIMARY HTS [%] H1650 (percentage inhibition)): 33% |
| O=c1c(Cl)c(Cl)cnn1-c1ccc(Cl)c(C(F)(F)F)c1 [compound 103719] | 102 | 76 | 94 | 45 |  |
| O=c1c(Cl)c(Cl)c(O)nn1-c1ccccc1 [compound 103751] | -4 | 0 | -4 | 6 |  |
| O=c1c(Cl)c(N2CCCC2)cnn1-c1ccccc1 [compound 103868] | -18 | -3 | -4 | -7 |  |
| COc1cnn(-c2cccc(C(F)(F)F)c2)c(=O)c1Cl [compound 103872] | 9 | -25 | 2 | 17 |  |
| CN(C)c1c(Cl)cnn(-c2ccccc2)c1=O [compound 103911] | -12 | -3 | -5 | -7 |  |
| CCc1ccccc1NC(=O)c1ccc([N+](=O)[O-])o1 [compound 103960] |  |  |  |  | inhibition at 10 µM [1, 9]: 41%; inhibition at 10 µM [2, 10]: 68%; inhibition at 10 µM [3, 11]: 73%; inhibition at 10 µM [4, 12]: 62% |
| COc1cnn(-c2ccccc2)c(=O)c1N(C)C [compound 103971] | -10 | -1 | 1 | 5 |  |
| CCSc1cnn(-c2ccccc2)c(=O)c1Cl [compound 103997] | 98 | 2 | 9 | -15 |  |
| CN(C(=O)c1ccc([N+](=O)[O-])o1)c1ccccc1 [compound 104003] |  |  |  |  | inhibition at 10 µM [1, 9]: 18%; inhibition at 10 µM [2, 10]: 5%; inhibition at 10 µM [3, 11]: 0%; inhibition at 10 µM [4, 12]: -3% |
| O=c1c(Cl)c(Cl)cnn1-c1ccc(Cl)cc1 [compound 104004] | 98 | 90 | 75 | 1 |  |
| O=C(Nc1cc(C(F)(F)F)ccc1Cl)c1ccc([N+](=O)[O-])o1 [compound 104039] |  |  |  |  | inhibition at 10 µM [1, 9]: 69%; inhibition at 10 µM [2, 10]: 6%; inhibition at 10 µM [3, 11]: 13%; inhibition at 10 µM [4, 12]: 61% |
| CSc1cnn(-c2ccccc2)c(=O)c1Cl [compound 104185] | 22 | 1 | -2 | -9 |  |
| O=c1c(Cl)c(Cl)cnn1-c1cccc(Cl)c1 [compound 104188] | 102 | 4 | -4 | -13 |  |
| CCOc1cnn(-c2ccccc2)c(=O)c1Cl [compound 104217] | -7 | -1 | 6 | -15 |  |
| CCOc1c(Cl)cnn(-c2ccccc2)c1=O [compound 104288] | 102 | 46 | 66 | -13 |  |
| O=c1c(N2CCCC2)c(Cl)cnn1-c1ccccc1 [compound 104304] | 98 | 107 | 14 | 52 |  |

| SMILES | inhibition at 10 µM [1, 5] [%] | inhibition at 10 µM [2, 6] [%] | inhibition at 10 µM [3, 7] [%] | inhibition at 10 µM [4, 8] [%] | other results |
| --- | --- | --- | --- | --- | --- |
| COc1cnn(-c2cccc(C)c2)c(=O)c1Cl [compound 104325] | -12 | 4 | 2 | -31 |  |
| COc1nn(-c2ccccc2)c(=O)c(Cl)c1Cl [compound 104332] | 99 | 82 | 87 | 51 |  |
| COc1cnn(-c2ccc([N+](=O)[O-])cc2)c(=O)c1Cl [compound 104339] | -9 | 3 | -3 | -21 |  |
| COc1cnn(-c2ccccc2)c(=O)c1Cl [compound 104386] | -11 | 0 | 6 | -12 |  |
| COc1cnn(-c2cccc(Cl)c2)c(=O)c1Cl [compound 104390] | 4 | 34 | -6 | 15 |  |
| COc1c(Cl)cnn(-c2cccc(C)c2)c1=O [compound 104415] | 15 | 9 | -3 | -20 |  |
| CSc1cnn(-c2ccccc2)c(=O)c1SC [compound 104423] | -20 | 1 | -3 | -11 |  |
| Cc1ccc(C(=O)Nc2ccc3ccccc3c2)o1 [compound 105503] |  |  |  |  | inhibition at 10 µM [1, 9]: -13%; inhibition at 10 µM [2, 10]: 0%; inhibition at 10 µM [3, 11]: -7%; inhibition at 10 µM [4, 12]: -10% |
| Cc1ccc([N+](=O)[O-])cc1NC(=O)c1ccco1 [compound 107911] |  |  |  |  | inhibition at 10 µM [1, 9]: -15%; inhibition at 10 µM [2, 10]: 7%; inhibition at 10 µM [3, 11]: 2%; inhibition at 10 µM [4, 12]: 8% |
| Cc1cccnc1NC(=O)c1ccc([N+](=O)[O-])o1 [compound 108321] |  |  |  |  | PRIMARY HTS [%] H1975 (percentage inhibition) ([1]; primary screening, H1975, 10 μM compound in 1% DMSO (v/v)): −7%; PRIMARY HTS [%] H3255 (percentage inhibition) ([2]; primary screening, H3255, 10 μM compound in 1% DMSO (v/v)): 2%; PRIMARY HTS [%] H2030 (percentage inhibition) ([3]; primary screening, H2030, 10 μM compound in 1% DMSO (v/v)): 6%; PRIMARY HTS [%] H1650 (percentage inhibition) ([4]; primary screening, H1650, 10 μM compound in 1% DMSO (v/v)): 38% |
| O=C(Nc1ccc(NC(=O)c2ccc(Cl)cc2Cl)cc1)c1cc2ccccc2o1 [compound 109007] |  |  |  |  | inhibition at 10 µM [1, 9]: -3%; inhibition at 10 µM [2, 10]: 1%; inhibition at 10 µM [3, 11]: 3%; inhibition at 10 µM [4, 12]: -6% |
| COc1c(Cl)cnn(-c2ccc(Cl)c(C(F)(F)F)c2)c1=O [compound 174405] | 28 | 32 | -9 | 13 |  |
| CCSc1cnn(-c2ccccc2)c(=O)c1SCC [compound 174406] | 3 | 8 | -9 | 18 |  |
| O=C(COc1cnn(-c2ccccc2)c(=O)c1Cl)c1ccc(Br)cc1 [compound 176702] | 26 | -21 | -14 | 29 |  |
| COc1ccc(-n2nc(-n3cnc4ccccc43)c(C)c(C#N)c2=O)cc1 [compound 176963] | -5 | 17 | 4 | 11 |  |
| O=C(COc1cnn(-c2ccccc2)c(=O)c1Cl)c1ccc(Cl)cc1 [compound 177215] | 25 | 13 | -9 | 6 |  |
| O=c1c(Sc2ccc(Cl)cc2)cc(Cl)nn1-c1ccccc1 [compound 177261] | 16 | 8 | -8 | 14 |  |
